Reference: PMC3786134 (ChemMedChem, 2012)

Key:
APOBEC3G (A3G) = APOBEC3G (A3G) (Homo sapiens, UniProt Q9HC16); experiment: fluorescence ssDNA C-to-U deaminase assay; type: biochemical
APOBEC3A (A3A) = APOBEC3A (A3A) (Homo sapiens, UniProt P31941); experiment: fluorescence ssDNA C-to-U deaminase assay; type: biochemical
Chain of APOBEC3A (A3A) (P31941 whole entry): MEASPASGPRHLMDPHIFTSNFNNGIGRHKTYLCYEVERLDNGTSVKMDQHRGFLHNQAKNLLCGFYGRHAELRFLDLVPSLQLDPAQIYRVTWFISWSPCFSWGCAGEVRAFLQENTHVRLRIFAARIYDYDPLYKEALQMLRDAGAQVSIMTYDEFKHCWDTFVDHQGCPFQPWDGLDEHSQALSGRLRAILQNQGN

Chain of APOBEC3G (A3G) (Q9HC16 whole entry): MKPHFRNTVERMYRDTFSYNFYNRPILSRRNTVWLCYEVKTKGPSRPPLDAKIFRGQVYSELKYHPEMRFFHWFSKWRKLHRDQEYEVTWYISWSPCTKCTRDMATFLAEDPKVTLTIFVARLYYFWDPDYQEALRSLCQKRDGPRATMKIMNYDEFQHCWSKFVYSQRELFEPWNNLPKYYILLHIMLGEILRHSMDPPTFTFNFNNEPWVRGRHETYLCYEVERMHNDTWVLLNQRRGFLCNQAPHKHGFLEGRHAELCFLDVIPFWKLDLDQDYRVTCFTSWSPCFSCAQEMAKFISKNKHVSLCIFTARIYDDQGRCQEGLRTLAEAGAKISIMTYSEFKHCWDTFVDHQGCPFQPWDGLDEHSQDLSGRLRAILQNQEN

## S=c1[nH]ncn1N=Cc1ccc(Br)cc1 [compound 1, 4-((4-bromobenzylidene)amino)-1,2,4-triazole-3-thiol]
APOBEC3G (A3G)
  IC50: 4.3 ± 1.1 µM
APOBEC3A (A3A)
  IC50: > 100 µM

## Nn1cnnc1S [compound 4, 4-amino-1,2,4-triazole-3-thiol]
APOBEC3G (A3G)
  IC50: > 100 µM
APOBEC3A (A3A)
  IC50: > 100 µM

## Cc1nnc(S)n1N [compound 5, 4-amino-5-methyl-1,2,4-triazole-3-thiol]
APOBEC3G (A3G)
  IC50: 6.1 ± 1.1 µM
APOBEC3A (A3A)
  IC50: > 100 µM

## Cc1nnc(O)n1N [compound 7, 4-amino-5-methyl-1,2,4-triazol-3-ol]
APOBEC3A (A3A)
  IC50: > 100 µM

## COc1ccc(C=Nn2c(C)nnc2S)cc1 [compound 8, 4-((4-methoxybenzylidene)amino)-5-methyl-1,2,4-triazole-3-thiol]
APOBEC3G (A3G)
  IC50: 3.9 ± 1.2 µM
APOBEC3A (A3A)
  IC50: > 100 µM

## Cc1nnc(S)n1NC(=O)c1ccccc1 [compound 9, N-(3-mercapto-5-methyl-1,2,4-triazol-4-yl)benzamide]
APOBEC3G (A3G)
  IC50: 8.2 ± 1.2 µM
APOBEC3A (A3A)
  IC50: > 100 µM

## Cc1nnc(SCc2ccccc2)n1N [compound 11, 3-(benzylthio)-5-methyl-1,2,4-triazol-4-amine]
APOBEC3A (A3A)
  IC50: > 100 µM
